Data taken from patent publication US8288365B2, “Phenazopyridine compounds” (Pinnacle Pharmaceuticals, Inc., priority 2008, dated 2012).
In brackets after ≈: the same amount, converted by molar mass. Read-outs that look alike come from different tables or passages of the source. Blank lines part the entries; values can stand above or below the molecule they belong to.

Experiments:
[1] = Solubility of PAP prodrugs in 0.1N HCl; type: physicochemical; details: for solubility: simulated gastric fluid
[2] = Pharmacokinetics of PAP and intact Gly-PAP in male rats after oral gavage; type: in vivo
Description: Pharmacokinetics for PAP and Gly-PAP (intact prodrug) were assessed in male rats following administration by oral gavage of mg/kg doses. Rats were fasted overnight prior to dosing. Blood samples were withdrawn at 0.25, 0.5, 1, 2, 4, 6, and 24 hours. The whole blood was centrifuged immediately, and supernatant (plasma) was collected. The plasma samples were assayed for PAP and Gly-PAP by LC-MS-MS.

[3] = Pharmacokinetics of PAP and intact Gly-PAP in dogs (plasma and urine) after oral gavage; type: in vivo
Description: Pharmacokinetics for PAP and Gly-PAP (intact prodrug) were assessed in dogs following administration by oral gavage of mg/kg doses. Blood (approximately 2 mL) was collected from a jugular vein into tubes containing lithium heparin anticoagulant predose and at 0.083, 0.25, 0.5, 1, 2, 4, 8, 12, and 24 hours postdose. Urine was collected into plastic containers surrounded by wet ice predose (−18 to 0) and 0 to 24 hours postdose. The volume of each sample was recorded. Plasma and urine samples were assayed for PAP and Gly-PAP by LC-MS-MS.

dogs = test: Emesis in dogs after oral TID dosing; type: in vivo; details: dogs (1 male/1 female), oral gavage TID, 24.8 mg/kg phenazopyridine base equivalent per dose
Description: Dogs (1 male/1 female) were dosed by oral gavage 3 times (TID), once every 8 hours, with 40 mg/kg Gly-PAP or 29 mg/kg phenazopyridine HCl (doses contained an equivalent amount of 24.8 mg/kg phenazopyridine base). […] Results showing reduction of the GI side effect of emesis are illustrated in FIG. 18.

[4] = Oral bioavailability of PAP prodrugs in rats (plasma PAP by LC-MS-MS); type: in vivo
Description: The oral bioavailability of PAP (phenazopyridine) prodrugs was evaluated in healthy rats. All the PAP amide (amino acid derivatives) bases were dissolved in 0.1N HCl (the same result can be obtained with a lower molarity), while the carbamates were dissolved in PEG-400 due to the very poor aqueous solubility of the PAP-carbamates. In general, all of the amino acid amide derivatives of PAP had higher water solubility than those of the PAP-carbamates. In another PK study, PAP.HCL salt, Gly-PAP.HCl salt and Gly-PAP.mesylate salt were dissolved in water, affording a clear solution in each case prior to oral administration.
(§1) The rats were fasted overnight prior to dosing. Appropriate amount of each compound was administered via gastric gavages, and at predetermined time (1, 2, 4, 6, and 24 h) blood samples were withdrawn from the rats. The whole blood was centrifuged immediately, and supernatant (plasma) was collected. The plasma samples were assayed for PAP using LC-MS-MS.

mammalian cells = details: cited from earlier work
rats [5] = details: doses up to 50 mg/kg/day or 110 mg/kg/day; cited from earlier work
rabbits = details: 39 mg/kg/day; cited from earlier work
bacteria = details: cited from earlier work
[6] = cited from earlier work
mice = details: i.p.; cited from earlier work
rats [7] = details: cited from earlier work
[8] = PAP pharmacokinetics in rats after oral Gly-PAP salt forms; type: in vivo; details: PAP in rat plasma, 2.5 mg/kg PAP base equivalent (2.8 for free base)
Description: The oral bioavailability of PAP (phenazopyridine) prodrugs was evaluated in healthy rats.
as §1
The pharmacokinetics of various salts of Gly-PAP were compared following oral administration to rats.

female mice = details: cited from earlier work
rats [9] = details: long term (2 years); cited from earlier work

Molecule: C[C@H](N)C(=O)Nc1ccc(/N=N/c2ccccc2)c(N)n1 [Alanyl-PAP, Alanyl-Phenazopyridine]
- solubility [1]: 2000 µg/mL (≈ 7030 µM)

Molecule: Nc1nc(NC(=O)OCc2ccccc2)ccc1/N=N/c1ccccc1 [Benzylcarbamyl-PAP, Benzylcarbamyl-Phenazopyridine]
- solubility [1]: < 100 µg/mL

Molecule: CCOC(=O)Nc1ccc(/N=N/c2ccccc2)c(N)n1 [Ethylcarbamyl-PAP, Ethylcarbamyl-Phenazopyridine]
- solubility [1]: < 100 µg/mL

Molecule: NCC(=O)Nc1ccc(/N=N/c2ccccc2)c(N)n1 [Gly-PAP, Glycyl-Phenazopyridine (6-N-Glycylphenazopyridine)]
- AUC of phenazopyridine from 0.9 mg/kg Gly-PAP versus 2.8 mg/kg phenazopyridine HCl ([2]; 0.6 versus 2.5 mg/kg phenazopyridine base): approximately equal AUC
- Plasma levels of Gly-PAP relative to those for phenazopyridine from Gly-PAP ([2]; Gly-PAP 4.0 mg/kg): < 5%
- Amount of phenazopyridine delivered to the urine ([3]; 8.1 mg/kg Gly-PAP versus equivalent phenazopyridine HCl, urine 0 to 24 hours): a greater amount of phenazopyridine was delivered to the urine
- Exposure (AUC0-24) to Gly-PAP relative to that for phenazopyridine ([3]; Gly-PAP 8.1 mg/kg): less than 10%
- Plasma Tmax for phenazopyridine (comparison) ([3]; Gly-PAP compared to phenazopyridine HCl): increased
- Observations of vomitus (dogs): single observation of vomitus
- solubility [1]: > 2000 µg/mL

Molecule: Nc1ccc(/N=N/c2ccccc2)c(N)n1 [Phenazopyridine]
- Mutagenicity and clastogenicity (mammalian cells): mutagenic and clastogenic
- Effects on fertility or embryo-fetal development (rats [5]): no effects on fertility or embryo-fetal development
- Effects on fertility or embryo-fetal development (rabbits): no effects on fertility or embryo-fetal development
- Mutagenicity (bacteria): mutagenic
- Excreted unchanged in urine ([6]; oral): up to 65%
- Single dose cleared within 24 hours ([6]; within 24 hours): approximately 90%
- Acute toxicity LD50 (mice): 180 mg/kg
- Acute toxicity LD50 (rats [7]; i.p.): 200 mg/kg
- Acute toxicity LD50 (rats [7]; oral): 472 mg/kg

Molecule: phenazopyridine hydrochloride [PAP•HCl]
- Plasma bioavailability of phenazopyridine ([3]; phenazopyridine HCl versus equivalent Gly-PAP): greater plasma bioavailability
- Observations of vomitus (dogs): four observations of vomitus
- Tmax [8]: 15 min
- AUC0-6 ([8]; SD printed in the row below): 105 ng·h/mL
- Cmax ([8]; water vehicle (0.1N HCl for free base)): 58 ng/mL
- Tmax ([4]; fasted rats, single oral gavage): <60 min
- AUC0-24 ([4]; fasted rats, single oral gavage, 0-24 hr): 182 ± 12 ng·h/mL
- Tumour induction on lifetime administration (female mice): caused hepatocellular adenomas and carcinomas
- Tumour induction on long term administration (rats [9]): induced adenomas and adenocarcinomas in the large intestine
- Solubility in 0.1N HCl [1]: 500 µg/mL

Other lines, results leading:

- solubility [1]: > 10000 µg/mL
Molecule: Nc1nc(NC(=O)[C@@H](N)Cc2c[nH]cn2)ccc1/N=N/c1ccccc1 [Histidinyl-PAP, Histidinyl-Phenazopyridine]

- Tmax ([4]; rats, oral): longer
- solubility [1]: < 100 µg/mL
Molecule: CC(C)COC(=O)Nc1ccc(/N=N/c2ccccc2)c(N)n1 [Isobutylcarbamyl-PAP, Isobutylcarbamyl-Phenazopyridine]

- solubility [1]: > 2500 µg/mL
Molecule: NCCCC[C@H](N)C(=O)Nc1ccc(/N=N/c2ccccc2)c(N)n1 [Lysyl-PAP, Lysyl-Phenazopyridine]

- solubility [1]: 1000 µg/mL (≈ 2900 µM)
Molecule: CSCC[C@H](N)C(=O)Nc1ccc(/N=N/c2ccccc2)c(N)n1 [Methionyl-PAP, Methionyl-Phenazopyridine]

- Tmax ([4]; rats, oral): longer
- solubility [1]: 500 µg/mL (≈ 1250 µM)
Molecule: Nc1nc(NC(=O)[C@@H](N)Cc2c[nH]c3ccccc23)ccc1/N=N/c1ccccc1 [Tryptophanyl-PAP, Tryptophanyl-Phenazopyridine]

- solubility [1]: > 2500 µg/mL
Molecule: CC(C)[C@H](N)C(=O)Nc1ccc(/N=N/c2ccccc2)c(N)n1 [Valyl-PAP, Valyl-Phenazopyridine]
